Test results reported in paper PMC10510397, “Development of a Selective Peptide κ-Opioid Receptor Antagonist by Late-Stage Functionalization with Cysteine Staples” (Journal of Medicinal Chemistry, 2023).
Counter-ions that a name gives are not always drawn. Like-named read-outs stand apart in the source and are kept apart here. Numbered stars: 1 amine (or outer) side, 2 acyl side, 3 side chain; on linkers, the order of the positions; unused ones are H or OH. Bridge positions count the residues as written; N and C are the ends. Square brackets hold non-standard residues; d marks the D form. Peptide text beside a SMILES is read from it. CH2COCH2 = O=C(C[*:1])C[*:2]; CH2 = C([*:1])[*:2]; Mpa = O=C(O)CCS

Tests used:
[1] = target: T1, mouse KOR (Mus musculus, UniProt P33534); assay: cell-based; assay type: cell-based; design: expressed in transfected cells; details: for activity at KOR in the functional cAMP assay: agonist mode, ligand on its own, up to concentrations of 10 μM; for EC50: HEK293 cells stably expressing mouse KOR, forskolin 10 μM, n.a. = not active, read-out: potency/efficacy cAMP EC50 ± SD; for Emax: read-out: potency/efficacy cAMP Emax ± SD
[2] = stability assay in human serum (RP-HPLC); assay type: in vitro ADME; details: 37 °C
Description: The stability of peptide ligands was determined with human serum from male AB plasma (Sigma) centrifuged at 13,300g for 10 min to remove the lipid content. The supernatant was preincubated at 37 °C for 5 min before 10 μL of a peptide stock solution (3 mg/mL in H2O) was added to 300 μL of serum. A reference solution was prepared in phosphate-buffered saline (PBS) buffer. The serum was incubated at 37 °C and analyzed over a time course of 5 h with 40 μL of aliquots removed at time points T = 0, 15, 30, 60, 90, 120, 240, and 300 min. Each aliquot was quenched with 40 μL of 5 M urea and incubated on ice for 10 min. The proteins were then precipitated with the addition of 40 μL of 20% (w/v) trichloroacetic acid and further incubated on ice for 10 min. The samples were centrifuged for 10 min at 15,000g, and the supernatant was analyzed by analytical RP-HPLC using a Phenomenex Jupiter C18 column (5 μm, 300 Å, 150 × 2 mm) using a linear gradient from 0 to 50% solvent B (90% acetonitrile, 10% H2O, and 0.05% trifluoroacetic acid) and a flow rate of 1 mL/min. The percentage of peptide remaining was determined by the integration of the analyte in comparison to T = 0 min. The peptides were analyzed in triplicate, and data were fitted to an exponential decay curve using GraphPad Prism software.

[3] = target: T1, mouse KOR; assay: biochemical; assay type: binding; design: expressed in transfected cells
[4] = target: T1, mouse KOR; assay type: cell-based; design: expressed in transfected cells; host or cells: HEK293 (transient co-transfection, 1:10 ratio); details: 10 μM ligand; compared to dynA1–13-NH2 = 100%
[5] = test system: mice; assay: rotarod test; assay type: in vivo, mouse; details: 10 mg/kg s.c., 24 h before U50,488 5 mg/kg; at 30 min
Description: (§1) Breeding, euthanasia, and all procedures of animal handling were performed according to the regulations of animal care and welfare. Experiments were carried out in accordance with the European Communities Council Directive of 24 November 1986 (86/609/EEC). Behavioral experiments were performed in male CD1 mice (8–10 weeks old) purchased from Janvier Labs (Le Genest-Saint-Isle, France). All animal care and experimental procedures were in accordance with the ethical guidelines for the animal welfare standards of the European Communities Council Directive (2010/63/EU) and were approved by the Committee of Animal Care of the Austrian Federal Ministry of Science and Research. Mice were group-housed in a temperature-controlled specific pathogen-free room with a 12 h light/dark cycle and with free access to food and water. […]
The rotarod test was performed using the accelerating rotarod treadmill (Acceler Rota-Rod 7650, Ugo Basile s.r.l., Varese, Italy) for mice (diameter 3.5 cm) as described previously.[53] […] The time spent on the drum was recorded for each mouse before (baseline) and at 30 min after s.c. administration of saline (control) or U50,488 (5 mg/kg). […] The rotarod data are expressed as percentage (%) changes from the rotarod latencies obtained before (baseline, BL) and after drug administration (test, TL) calculated as 100 × (TL/BL).

[6] = test system: mice; assay: radiant heat tail-flick assay; assay type: in vivo, mouse; details: 10 mg/kg s.c., 24 h before U50,488 5 mg/kg
Description: as §1, with “Research.” for “Research. Mice were group-housed in a temperature-controlled specific pathogen-free room with a 12 h light/dark cycle and with free access to food and water.”
The radiant heat tail-flick test was performed using an UB 37360 Ugo Basile analgesiometer (Ugo Basile s.r.l., Varese, Italy) as described previously.[52] The reaction time required by the mouse to remove its tail after application of the radiant heat was measured and defined as the tail-flick latency (in seconds). Tail-flick latencies were measured before and after s.c. administration of saline (control) or U50,488 (5 mg/kg) (i.e., 30 and 60 min) (test latency, TL). […] The antinociceptive effect (as the percentage of the maximum possible effect, % MPE) was calculated according to the formula = [(TL – BL)/(cutoff time – BL)] × 100 where TL represents the test latency and BL is the basal latency.

[7] = test system: DRG neurons; assay: single-cell calcium microfluorimetry in DRG neurons; assay type: cell-based, mouse; details: 0.5 μM pre-applied, U50,488 10 μM
[8] = 1 nM [3H]-diprenorphine, HEK293 cell membranes stably expressing mouse KOR, read-out: affinity Ki ± SD

T1 sequence (P33534 whole entry): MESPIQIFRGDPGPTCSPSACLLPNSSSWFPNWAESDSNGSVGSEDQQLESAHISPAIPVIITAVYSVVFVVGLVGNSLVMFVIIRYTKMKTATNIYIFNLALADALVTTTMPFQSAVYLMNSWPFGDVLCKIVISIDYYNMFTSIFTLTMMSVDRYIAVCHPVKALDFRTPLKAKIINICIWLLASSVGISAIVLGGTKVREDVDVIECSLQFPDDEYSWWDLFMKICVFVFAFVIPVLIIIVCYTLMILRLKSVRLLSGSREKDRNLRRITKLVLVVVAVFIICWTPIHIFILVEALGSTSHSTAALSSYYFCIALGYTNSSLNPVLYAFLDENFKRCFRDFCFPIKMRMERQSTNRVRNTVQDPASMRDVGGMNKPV

CC(C)C[C@H](NC(=O)[C@H](CCCCN)NC(=O)[C@@H]1CCCN1C(=O)[C@H](CCCNC(=N)N)NC(=O)[C@@H]1CSCSCCC(=O)N[C@@H](Cc2ccc(O)cc2)C(=O)NCC(=O)NCC(=O)N[C@@H](Cc2ccccc2)C(=O)N[C@@H](CC(C)C)C(=O)N[C@@H](CCCNC(=N)N)C(=O)N[C@@H](CCCNC(=N)N)C(=O)N1)C(=O)N[C@@H](CCCCN)C(N)=O [CSD-CH2(1,8)-NH2] ([Mpa]YGGFLRRCRPKLK-NH2; linker 1-9 via CH2)
activity at KOR in the functional cAMP assay [1]: inactive
t1/2 in human serum [2]: 95 min

CC(C)C[C@H](NC(=O)[C@H](CCCCN)NC(=O)[C@@H]1CCCN1C(=O)[C@H](CCCNC(=N)N)NC(=O)[C@@H]1CSCSCCC(=O)N[C@@H](Cc2ccc(O)cc2)C(=O)NCC(=O)NCC(=O)N[C@@H](Cc2ccccc2)C(=O)N[C@@H](CC(C)C)C(=O)N[C@@H](CCCNC(=N)N)C(=O)N[C@@H](CCCNC(=N)N)C(=O)N1)C(=O)N[C@@H](CCCCN)C(=O)O [CSD-CH2(1,8)-OH] ([Mpa]YGGFLRRCRPKLK-OH; linker 1-9 via CH2)
activity at KOR in the functional cAMP assay [1]: inactive

CC[C@H](C)[C@@H]1NC(=O)[C@H](CCCNC(=N)N)NC(=O)[C@H](CCCNC(=N)N)NC(=O)[C@H](CC(C)C)NC(=O)[C@H](Cc2ccccc2)NC(=O)CNC(=O)CNC(=O)[C@H](Cc2ccc(O)cc2)NC(=O)CCSCSC[C@@H](C(=O)N[C@@H](CCCCN)C(=O)N[C@@H](CC(C)C)C(=O)N[C@@H](CCCCN)C(N)=O)NC(=O)[C@H](CCCNC(=N)N)NC1=O [CSD-CH2(1,10)-NH2] ([Mpa]YGGFLRRIRCKLK-NH2; linker 1-11 via CH2)
EC50 [1]: 540 nM
Emax [1]: 49 ± 15%
Ki [3]: 6 nM
Ki [3, 8]: 5.6 nM
improvement of KOR affinity by C-terminal amidation ([3]; versus counterpart with C-terminal carboxylic acid): ~6 fold
β-arrestin-2 recruitment efficiency (ligand induced BRET) [4]: 38%

CC[C@H](C)[C@@H]1NC(=O)[C@H](CCCNC(=N)N)NC(=O)[C@H](CCCNC(=N)N)NC(=O)[C@H](CC(C)C)NC(=O)[C@H](Cc2ccccc2)NC(=O)CNC(=O)CNC(=O)[C@H](Cc2ccc(O)cc2)NC(=O)CCSCSC[C@@H](C(=O)N[C@@H](CCCCN)C(=O)N[C@@H](CC(C)C)C(=O)N[C@@H](CCCCN)C(=O)O)NC(=O)[C@H](CCCNC(=N)N)NC1=O [CSD-CH2(1,10)-OH] ([Mpa]YGGFLRRIRCKLK-OH; linker 1-11 via CH2)
activity at KOR in the functional cAMP assay [1]: inactive
Ki [3, 8]: 31 nM
β-arrestin-2 recruitment efficiency (ligand induced BRET) [4]: less than 25%

CC(C)C[C@H](NC(=O)[C@H](CCCCN)NC(=O)[C@@H]1CCCN1C(=O)[C@H](CCCNC(=N)N)NC(=O)[C@@H]1CSCC(=O)CSCCC(=O)N[C@@H](Cc2ccc(O)cc2)C(=O)NCC(=O)NCC(=O)N[C@@H](Cc2ccccc2)C(=O)N[C@@H](CC(C)C)C(=O)N[C@@H](CCCNC(=N)N)C(=O)N[C@@H](CCCNC(=N)N)C(=O)N1)C(=O)N[C@@H](CCCCN)C(N)=O [CSD-ace(1,8)-NH2] ([Mpa]YGGFLRRCRPKLK-NH2; linker 1-9 via CH2COCH2)
Emax [1]: 73 ± 14%

CC(C)C[C@H](NC(=O)[C@H](CCCCN)NC(=O)[C@@H]1CCCN1C(=O)[C@H](CCCNC(=N)N)NC(=O)[C@@H]1CSCC(=O)CSCCC(=O)N[C@@H](Cc2ccc(O)cc2)C(=O)NCC(=O)NCC(=O)N[C@@H](Cc2ccccc2)C(=O)N[C@@H](CC(C)C)C(=O)N[C@@H](CCCNC(=N)N)C(=O)N[C@@H](CCCNC(=N)N)C(=O)N1)C(=O)N[C@@H](CCCCN)C(=O)O [CSD-ace(1,8)-OH] ([Mpa]YGGFLRRCRPKLK-OH; linker 1-9 via CH2COCH2)
Emax [1]: 57 ± 11%

CC[C@H](C)[C@H](NC(=O)[C@H](CCCNC(=N)N)NC(=O)[C@H](CCCNC(=N)N)NC(=O)[C@H](CC(C)C)NC(=O)[C@H](Cc1ccccc1)NC(=O)CNC(=O)CNC(=O)[C@@H](N)Cc1ccc(O)cc1)C(=O)N[C@@H](CCCNC(=N)N)C(=O)N1CCC[C@H]1C(=O)N[C@@H](CCCCN)C(=O)N[C@@H](CC(C)C)C(=O)N[C@@H](CCCCN)C(N)=O [dynA1–13-NH2, Dynorphin (dyn) A1–13 amide trifluoroacetate salt, reference compound]
EC50 [1]: 9.1 nM
Emax [1]: 100%
t1/2 in human serum [2]: 4 min
β-arrestin-2 recruitment efficiency (ligand induced BRET) [4]: 100%

Oc1ccc2c3c1O[C@H]1c4[nH]c5c(c4C[C@@]4(O)[C@@H](C2)N(CC2CC2)CC[C@]314)C[C@@]1(O)[C@H]2Cc3ccc(O)c4c3[C@@]1(CCN2CC1CC1)[C@H]5O4 [nor-BNI, norbinaltorphimine]
antagonism of U50,488 effect in the rotarod test [5]: Antagonism
antagonism of U50,488-induced antinociception [6]: blocked the antinociceptive response of U50,488
effect on U50,488-induced calcium signals in DRG neurons [7]: inhibited the activity of U50,488
